# From patent publication US10807993B2, “Dihydrochromene derivatives” (Sumitomo Dainippon Pharma Co., Ltd., priority 2018, dated 2020)
# pIC50: −log10 of the molar value. Read-outs that look alike come from different tables or passages of the source.
# Experiments:
# HT-29 cells = experiment: Inhibition test for sphere formation assay of cancer cells; assay type: cell-based; details: for pIC50: sphere culture (ultra-low attachment, serum-free), 4 days, CellTiter-Glo, read-out: Sphere IC50 value (concentration for 50% inhibition of cell proliferation); for activity for inhibiting cell proliferation in the sphere culture condition: summary in words
# Experimental: Reliable methods established for measuring the self-renewal ability of cells which is one of the CSC's properties include a method for measuring the sphere-forming ability of cancer cells in non-adherent condition in the absence of serum (Cancer Res 65, 5506-5511 (2005)). HT-29 cells were available from American Type Culture Collection (ATCC). HT-29 cells were cultured at 37° C. under 5% CO2 using the McCoy's 5a medium containing 10% fetal bovine serum (FBS) and 1% penicillin/streptomycin. HT-29 cells were seeded in a 384 Well Black Clear Bottom Ultra-Low Attachment Microplate (Corning Cat. No. 3827) in an amount of 350-800 cells/well using the DMEM/F12 medium containing 2% B27 supplement (GIBCO), 20 ng/mL epidermal growth factor (EGF) (peprotech), 10 ng/mL basic fibroblast growth factor (bFGF) (peprotech), 5 μg/mL insulin (Sigma), and 1% penicillin/streptomycin. Each test compound was added into each well to adjust the final concentration of DMSO to 0.1%, and the cells were cultured for 4 days. The number of viable cells in each well was then measured with CellTiter-Glo™ Luminescent Cell Viability Assay (Promega) to calculate the concentration of each test compound for 50% inhibition of cell proliferation (Sphere IC50 value; […])
# The experiment of Test 1 was performed for each compound of each Example. The concentration of each test compound for 50% inhibition of cell proliferation (Sphere IC50 value; μmol/L) is shown in the following Table.
# hERG [1] = target: T1, hERG (Homo sapiens (Human), UniProt Q12809)
# T1 sequence (Q12809 whole entry): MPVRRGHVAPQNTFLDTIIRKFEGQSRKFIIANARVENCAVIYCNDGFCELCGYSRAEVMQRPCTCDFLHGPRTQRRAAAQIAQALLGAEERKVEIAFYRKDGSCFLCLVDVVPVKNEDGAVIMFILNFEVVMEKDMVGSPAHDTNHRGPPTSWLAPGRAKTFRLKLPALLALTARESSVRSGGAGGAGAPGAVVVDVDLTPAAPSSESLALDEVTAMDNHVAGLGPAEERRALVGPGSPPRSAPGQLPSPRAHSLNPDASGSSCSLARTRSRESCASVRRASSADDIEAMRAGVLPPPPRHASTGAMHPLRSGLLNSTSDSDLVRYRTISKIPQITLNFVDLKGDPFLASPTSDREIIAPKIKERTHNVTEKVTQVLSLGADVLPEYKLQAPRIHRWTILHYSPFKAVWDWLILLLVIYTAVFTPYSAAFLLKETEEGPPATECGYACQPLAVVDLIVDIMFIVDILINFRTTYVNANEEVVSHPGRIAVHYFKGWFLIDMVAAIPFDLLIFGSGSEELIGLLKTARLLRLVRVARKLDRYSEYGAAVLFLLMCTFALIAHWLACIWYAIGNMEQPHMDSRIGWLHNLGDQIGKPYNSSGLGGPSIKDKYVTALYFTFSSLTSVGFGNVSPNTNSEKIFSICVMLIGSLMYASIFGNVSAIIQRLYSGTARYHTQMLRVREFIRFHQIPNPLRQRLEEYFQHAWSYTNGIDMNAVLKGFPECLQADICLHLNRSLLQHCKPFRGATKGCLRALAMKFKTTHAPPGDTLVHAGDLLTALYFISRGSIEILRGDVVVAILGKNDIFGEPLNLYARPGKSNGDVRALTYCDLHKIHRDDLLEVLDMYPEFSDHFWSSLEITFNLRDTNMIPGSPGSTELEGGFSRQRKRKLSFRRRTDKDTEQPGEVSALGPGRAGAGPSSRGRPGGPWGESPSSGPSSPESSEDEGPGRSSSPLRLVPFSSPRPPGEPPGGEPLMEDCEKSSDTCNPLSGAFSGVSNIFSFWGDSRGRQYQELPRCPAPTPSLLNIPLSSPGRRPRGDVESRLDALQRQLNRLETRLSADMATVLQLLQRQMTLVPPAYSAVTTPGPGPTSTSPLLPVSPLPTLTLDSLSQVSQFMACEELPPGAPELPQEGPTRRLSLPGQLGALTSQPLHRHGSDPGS
# Experimental: (§1) To a cultured CHO cell strain which stably expresses hERG was added each test compound to adjust the final concentration of DMSO to 0.0135 to 0.5%. The hERG current was measured with QPatch HT (Sophion Inc.), and the concentration at which 50% of the hERG current was inhibited by each test compound (IC50 value; μM) was calculated.
# (§2) The compounds of Examples were tested according to Test 2. And, the hERG/HT-29 was calculated by dividing the compound concentration obtained in Test 2 (50% of the hERG current is inhibited) by the compound concentration obtained in Test 1 (50% of the proliferation of HT-29 cells is inhibited).
# hERG [2] = target: T1, hERG; experiment: Test for evaluating hERG inhibition (QPatch HT, CHO cell strain stably expressing hERG); details: for hERG/HT-29: hERG IC50 (Test 2) divided by HT-29 sphere IC50 (Test 1); for IC50: read-out: Binding inhibition (IC50, μM), concentration at which 50% of the hERG current was inhibited, CHO cells stably expressing hERG, QPatch HT; for deviation between the concentration of inhibiting 50% cell proliferation and the concentration of inhibiting 50% hERG current: summary in words of hERG/HT-29
# Experimental: as §1, §2
Compound,pIC50 (HT-29 cells),pIC50 (hERG [1]),hERG/HT-29 (hERG [1]),activity for inhibiting cell proliferation in the sphere culture condition (HT-29 cells),hERG/HT-29 (hERG [2]),IC50 (hERG [2]) [µM],deviation between the concentration of inhibiting 50% cell proliferation and the concentration of inhibiting 50% hERG current (hERG [2]),"pIC50 (HT-29 cells; Homo sapiens, 96 h)",pIC50 (hERG [2])
CC1(C)Oc2ccc(Cl)cc2C2OCC3(CCN(C(=O)Cn4cnc(C(F)(F)F)c4)CC3)CC21 (stereo not shown) [Example 17],5.08,5.52,0.36,,,,,,
Cc1nccn1CCN1CCC2(CC1)COC1c3cc(F)ccc3OC(C)(C)C1C2 (stereo not shown) [Example 43],7.30,6.00,20,,,,,,
CC1(C)Oc2ccc(N=[N+]=[N-])cc2C2OCC3(CCN(C(=O)Cn4ccnc4C#N)CC3)CC21 (stereo not shown) [Example 11],5.39,5.31,1.20,,,,,,
CC1(C)Oc2ccc(Cl)cc2C2OCC3(CCN(C(=O)Cn4ccnc4C#N)CC3)CC21 (stereo not shown) [Example 12],6.26,5.54,5.27,,,,,,
CC1(C)Oc2ccc(Cl)cc2C2OCC3(CCN(C(=O)Cn4ccnc4CO)CC3)CC21 (stereo not shown) [Example 15],6.52,5.80,5.33,,,,,,
Cc1nccn1CC(=O)N1CCC2(CC1)COC1c3ccc(Br)cc3OC(C)(C)C1C2 (stereo not shown) [Example 8],6.51,6.52,0.97,,,,,,
"Cc1nccn1CC(=O)N1CCC2(CC1)COC1c3cc(Cl)ccc3OC(C)(C)C1C2 (single isomer, unassigned) [Example 3]",7.10,6.70,2.50,,,,,,
"CC1(C)Oc2cc(Cl)ccc2C2OCC3(CCN(CCn4ccnc4)CC3)CC21 (racemic) [Example 38, Racemate of (4′aR,10′bR)-8′-chloro-1-[2-(1H-imidazol-1-yl)ethyl]-5′,5′-dimethyl-4′a,10′b-dihydro-2′H,4′H,5′H-spiro[piperidine-4,3′-pyrano[3,2-c][1]benzopyran] and (4′aS,10′bS)-8′-chloro-1-[2-(1H-imidazol-1-yl)ethyl]-5′,5′-dimethyl-4′a,10′b-dihydro-2′H,4′H,5′H-spiro[piperidine-4,3′-pyrano[3,2-c][1]benzopyran]]",,,,,>80,,good deviation,> 8.00,6.10
"Cc1nccn1CC(=O)N1CCC2(CC1)COC1c3cc(Cl)ccc3OC(C)(C)C1C2 (racemic) [Example 1, Racemate of 1-[(4′aS,10′bS)-9′-chloro-5′,5′-dimethyl-4′a,10′b-dihydro-2′H,4′H,5′H-spiro[piperidine-4,3′-pyrano[3,2-c][1]benzopyran]-1-yl]-2-(2-methyl-1H-imidazol-1-yl)ethan-1-one and 1-[(4′aR,10′bR)-9′-chloro-5′,5′-dimethyl-4′a,10′b-dihydro-2′H, 4′H, 5′H-spiro[piperidine-4,3′-pyrano[3,2-c][1]benzopyran]-1-yl]-2-(2-methyl-1H-imidazol-1-yl)ethan-1-one]",,,,,,,,7.10,> 6.52
Cc1nccn1CCN1CCC2(CC1)COC1c3cc(F)ccc3OC(C)(C)C1C2 (stereo not shown) [Example 44],> 8.00,,,potent activity,>360,3.6,good deviation,,
CC1(C)Oc2cc(Cl)ccc2C2OCC3(CCN(CCn4ccnc4)CC3)CC21 (stereo not shown) [Example 41],> 8.00,,,potent activity,>70,0.7,good deviation,,
CC1(C)Oc2ccc(Cl)cc2C2OCC3(CCN(CCn4ccnc4)CC3)CC21 (stereo not shown) [Example 40],> 8.00,,,potent activity,>140,1.4,good deviation,,
Cc1nccn1CC(=O)N1CCC2(CC1)COC1c3cc(F)ccc3OC(C)(C)C1C2 (stereo not shown) [Example 2],6.62,,,,,< 0.3,,,
Cc1c(CO)ncn1CC(=O)N1CCC2(CC1)COC1c3cc(Cl)ccc3OC(C)(C)C1C2 (stereo not shown) [Example 14],6.40,6.52,0.75,,,,,,
Cc1nccn1CCN1CCC2(CC1)COC1c3cc(Cl)ccc3OC(C)(C)C1C2 (stereo not shown) [Example 48],> 8.00,,,potent activity,>80,0.8,good deviation,,

# Now from value to molecule, other results behind:
pIC50 (HT-29 cells),Compound,pIC50 (hERG [1]),hERG/HT-29 (hERG [1]),activity for inhibiting cell proliferation in the sphere culture condition (HT-29 cells),hERG/HT-29 (hERG [2]),IC50 (hERG [2]) [µM],deviation between the concentration of inhibiting 50% cell proliferation and the concentration of inhibiting 50% hERG current (hERG [2]),"pIC50 (HT-29 cells; Homo sapiens, 96 h)",pIC50 (hERG [2])
7.15,CC1(C)Oc2ccc(Cl)cc2C2OCC3(CCN(CCn4ccnc4C#N)CC3)CC21 (stereo not shown) [Example 58],5.72,27.1,,,,,,
7.52,Cc1nccn1CCN1CCC2(CC1)COC1c3ccc(Cl)cc3OC(C)(C)C1C2 (stereo not shown) [Example 50],5.82,50,,,,,,
6.80,CC(=O)NCCc1nccn1CCN1CCC2(CC1)COC1c3cc(Cl)ccc3OC(C)(C)C1C2 (stereo not shown) [Example 60],5.96,6.88,,,,,,
7.15,Cc1nc(CO)cn1CCN1CCC2(CC1)COC1c3ccc(Cl)cc3OC(C)(C)C1C2 (stereo not shown) [Example 57],5.96,15.7,,,,,,
> 8.00,Cc1nccn1CCN1CCC2(CC1)COC1c3ccc(Cl)cc3OC(C)(C)C1C2 (stereo not shown) [Example 51],,,potent activity,>90,0.9,good deviation,,
> 8.00,Cc1nccn1CCN1CCC2(CC1)COC1c3cc(F)ccc3OC(C)(C)C1C2 (stereo not shown) [Example 45],6.40,>40,potent activity,,,,,
7.22,CC1(C)Oc2ccc(Cl)cc2C2OCC3(CCN(CCn4cnc(CO)c4)CC3)CC21 (stereo not shown) [Example 55],5.80,26.7,,,,,,
